Source: PubChem BioAssay (NCI)
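Values below derive from 48-hour exposures of cells grown in 96-well plates, with endpoints linearly interpolated between the two concentrations bracketing the appropriate inhibition level. TGI denotes the concentration required for complete inhibition of growth.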

Columns and labels:
Assay in all cases: NCI anticancer screen, dose series, 48 h
NCI-H460 lung = test system: NCI-H460 lung
SW-620 colon = test system: SW-620 colon
MDA-MB-231 breast = test system: MDA-MB-231 breast
SF-295 CNS = test system: SF-295 CNS
SF-539 CNS = test system: SF-539 CNS
ACHN renal = test system: ACHN renal
SK-MEL-28 melanoma = test system: SK-MEL-28 melanoma
OVCAR-5 ovarian = test system: OVCAR-5 ovarian
MDA-MB-435 = test system: MDA-MB-435
EKVX NSCLC = test system: EKVX NSCLC
RXF 393 renal = test system: RXF 393 renal
HOP-92 NSCLC = test system: HOP-92 NSCLC
M14 melanoma = test system: M14 melanoma
SR leukemia = test system: SR leukemia
HCT-15 colon = test system: HCT-15 colon
UACC-62 melanoma = test system: UACC-62 melanoma
NCI/ADR-RES ovarian = test system: NCI/ADR-RES ovarian
KM12 colon = test system: KM12 colon
PC-3 prostate = test system: PC-3 prostate
SK-MEL-5 melanoma = test system: SK-MEL-5 melanoma
COLO 205 colon = test system: COLO 205 colon
A498 renal = test system: A498 renal
HS 578T breast = test system: HS 578T breast
RPMI-8226 leukemia = test system: RPMI-8226 leukemia
SN12C renal = test system: SN12C renal
MCF7 breast = test system: MCF7 breast
SF-268 CNS = test system: SF-268 CNS
NCI-H23 lung = test system: NCI-H23 lung
BT-549 breast = test system: BT-549 breast
MOLT-4 leukemia = test system: MOLT-4 leukemia
IGROV1 ovarian = test system: IGROV1 ovarian
CAKI-1 renal = test system: CAKI-1 renal
OVCAR-3 ovarian = test system: OVCAR-3 ovarian
HCT-116 colon = test system: HCT-116 colon
HL-60(TB) leukemia = test system: HL-60(TB) leukemia
MALME-3M melanoma = test system: MALME-3M melanoma
T-47D breast = test system: T-47D breast
CCRF-CEM leukemia = test system: CCRF-CEM leukemia
SNB-19 CNS = test system: SNB-19 CNS
NCI-H522 lung = test system: NCI-H522 lung
K-562 leukemia = test system: K-562 leukemia
OVCAR-8 ovarian = test system: OVCAR-8 ovarian
NCI-H226 lung = test system: NCI-H226 lung
SK-MEL-2 melanoma = test system: SK-MEL-2 melanoma
LOX IMVI melanoma = test system: LOX IMVI melanoma
SNB-75 CNS = test system: SNB-75 CNS
HT29 colon = test system: HT29 colon
MDA-N = test system: MDA-N
TK-10 renal = test system: TK-10 renal
OVCAR-4 ovarian = test system: OVCAR-4 ovarian
DU-145 prostate = test system: DU-145 prostate
HCC-2998 colon = test system: HCC-2998 colon
A549 NSCLC = test system: A549 NSCLC
U251 CNS = test system: U251 CNS
SK-OV-3 ovarian = test system: SK-OV-3 ovarian
UACC-257 melanoma = test system: UACC-257 melanoma
786-0 renal = test system: 786-0 renal
UO-31 renal = test system: UO-31 renal
HOP-62 NSCLC = test system: HOP-62 NSCLC

SMILES: COC(=O)c1cc2c3c(c1)Oc1cc(C(=O)OC)cc4c1C3c1c(cc(C(=O)OC)cc1O4)O2
- TGI (NCI-H460 lung): > 100 µM
- TGI (SW-620 colon): > 100 µM
- TGI (MDA-MB-231 breast): > 100 µM
- TGI (SF-295 CNS): 26.4 µM
- TGI (SF-539 CNS): 33 µM
- TGI (ACHN renal): 26.2 µM
- TGI (SK-MEL-28 melanoma): > 100 µM
- TGI (OVCAR-5 ovarian): > 66.1 µM
- TGI (MDA-MB-435): > 100 µM
- TGI (EKVX NSCLC): 46.4 µM
- TGI (RXF 393 renal): 16.5 µM
- TGI (HOP-92 NSCLC): > 31.6 µM
- TGI (M14 melanoma): > 95.7 µM
- TGI (SR leukemia): > 100 µM
- TGI (HCT-15 colon): > 100 µM
- TGI (UACC-62 melanoma): > 75.5 µM
- TGI (NCI/ADR-RES ovarian): 13 µM
- TGI (KM12 colon): > 49.7 µM
- TGI (PC-3 prostate): > 53.6 µM
- TGI (SK-MEL-5 melanoma): 14.3 µM
- TGI (COLO 205 colon): > 91.5 µM
- TGI (A498 renal): > 94.6 µM
- TGI (HS 578T breast): 41.1 µM
- TGI (RPMI-8226 leukemia): > 100 µM
- TGI (SN12C renal): > 100 µM
- TGI (MCF7 breast): > 56.3 µM
- TGI (SF-268 CNS): 30 µM
- TGI (NCI-H23 lung): > 72 µM
- TGI (BT-549 breast): > 100 µM
- TGI (MOLT-4 leukemia): > 100 µM
- TGI (IGROV1 ovarian): 26.5 µM
- TGI (CAKI-1 renal): 27.8 µM
- TGI (OVCAR-3 ovarian): 33 µM
- TGI (HCT-116 colon): > 100 µM
- TGI (HL-60(TB) leukemia): > 29.3 µM
- TGI (MALME-3M melanoma): 37.2 µM
- TGI (T-47D breast): > 100 µM
- TGI (CCRF-CEM leukemia): 96.9 µM
- TGI (SNB-19 CNS): > 62.9 µM
- TGI (NCI-H522 lung): 15.5 µM
- TGI (K-562 leukemia): > 100 µM
- TGI (OVCAR-8 ovarian): 17.1 µM
- TGI (NCI-H226 lung): 13.6 µM
- TGI (SK-MEL-2 melanoma): > 100 µM
- TGI (LOX IMVI melanoma): > 46.1 µM
- TGI (SNB-75 CNS): 20 µM
- TGI (HT29 colon): 38.3 µM
- TGI (MDA-N): > 100 µM
- TGI (TK-10 renal): > 56.9 µM
- TGI (OVCAR-4 ovarian): > 100 µM
- TGI (DU-145 prostate): > 41.3 µM
- TGI (HCC-2998 colon): > 100 µM
- TGI (A549 NSCLC): > 48.3 µM
- TGI (U251 CNS): 41.8 µM
- TGI (SK-OV-3 ovarian): 42.4 µM
- TGI (UACC-257 melanoma): > 100 µM
- TGI (786-0 renal): 23 µM
- TGI (UO-31 renal): > 100 µM
- TGI (HOP-62 NSCLC): 23.5 µM

SMILES: CC(C)C(Br)CC/C(CBr)=C(\Cl)CCl (stereo not drawn)
- TGI (NCI-H460 lung): 30.6 µM
- TGI (SW-620 colon): 3.94 µM
- TGI (MDA-MB-231 breast): 7.71 µM
- TGI (SF-295 CNS): 28.7 µM
- TGI (SF-539 CNS): 11.4 µM
- TGI (ACHN renal): 28.2 µM
- TGI (SK-MEL-28 melanoma): 10.1 µM
- TGI (OVCAR-5 ovarian): 23.3 µM
- TGI (MDA-MB-435): 5.16 µM
- TGI (EKVX NSCLC): 31.9 µM
- TGI (RXF 393 renal): 3.66 µM
- TGI (HOP-92 NSCLC): 6.84 µM
- TGI (M14 melanoma): 3.82 µM
- TGI (SR leukemia): 3.71 µM
- TGI (HCT-15 colon): 4.82 µM
- TGI (UACC-62 melanoma): 7.71 µM
- TGI (NCI/ADR-RES ovarian): 16.2 µM
- TGI (KM12 colon): 17.9 µM
- TGI (PC-3 prostate): 16.3 µM
- TGI (SK-MEL-5 melanoma): 3.8 µM
- TGI (COLO 205 colon): 8.53 µM
- TGI (A498 renal): 35 µM
- TGI (HS 578T breast): 15.4 µM
- TGI (RPMI-8226 leukemia): 4.49 µM
- TGI (SN12C renal): 8.5 µM
- TGI (MCF7 breast): 19.3 µM
- TGI (SF-268 CNS): 27.9 µM
- TGI (NCI-H23 lung): 12.3 µM
- TGI (BT-549 breast): 3.27 µM
- TGI (MOLT-4 leukemia): 2.36 µM
- TGI (IGROV1 ovarian): 3.64 µM
- TGI (CAKI-1 renal): 9.89 µM
- TGI (OVCAR-3 ovarian): 8.21 µM
- TGI (HCT-116 colon): 5.11 µM
- TGI (HL-60(TB) leukemia): 3.86 µM
- TGI (MALME-3M melanoma): 15.2 µM
- TGI (T-47D breast): 3.43 µM
- TGI (CCRF-CEM leukemia): 0.995 µM
- TGI (SNB-19 CNS): 31.1 µM
- TGI (NCI-H522 lung): 2.02 µM
- TGI (K-562 leukemia): 3.03 µM
- TGI (OVCAR-8 ovarian): 9.82 µM
- TGI (NCI-H226 lung): 6.97 µM
- TGI (SK-MEL-2 melanoma): 4.35 µM
- TGI (LOX IMVI melanoma): 1.08 µM
- TGI (SNB-75 CNS): 13.4 µM
- TGI (HT29 colon): 4.09 µM
- TGI (MDA-N): 3.81 µM
- TGI (TK-10 renal): 20.1 µM
- TGI (OVCAR-4 ovarian): 6.48 µM
- TGI (DU-145 prostate): 25.2 µM
- TGI (HCC-2998 colon): 26.3 µM
- TGI (A549 NSCLC): 33.3 µM
- TGI (U251 CNS): 17.5 µM
- TGI (SK-OV-3 ovarian): 11.3 µM
- TGI (UACC-257 melanoma): 9.52 µM
- TGI (786-0 renal): 3.49 µM
- TGI (UO-31 renal): 15.8 µM
- TGI (HOP-62 NSCLC): 30.3 µM
